Reference: paper PMC4032265 (PLoS ONE, 2014)
Like-named read-outs stand apart in the source and are kept apart here.

Columns and labels:
α2B adrenergic receptor = biological target: T1, α2B adrenergic receptor (Homo sapiens, UniProt P18089); experiment: PDSP radioligand binding, α2B; conditions: for inhibition at 10 µM: read-out: % inhibition at 10 µM, single concentration 10 µM; for Ki: full concentration-response curves, n = 3-6 unless noted
T1 sequence (P18089 1-450): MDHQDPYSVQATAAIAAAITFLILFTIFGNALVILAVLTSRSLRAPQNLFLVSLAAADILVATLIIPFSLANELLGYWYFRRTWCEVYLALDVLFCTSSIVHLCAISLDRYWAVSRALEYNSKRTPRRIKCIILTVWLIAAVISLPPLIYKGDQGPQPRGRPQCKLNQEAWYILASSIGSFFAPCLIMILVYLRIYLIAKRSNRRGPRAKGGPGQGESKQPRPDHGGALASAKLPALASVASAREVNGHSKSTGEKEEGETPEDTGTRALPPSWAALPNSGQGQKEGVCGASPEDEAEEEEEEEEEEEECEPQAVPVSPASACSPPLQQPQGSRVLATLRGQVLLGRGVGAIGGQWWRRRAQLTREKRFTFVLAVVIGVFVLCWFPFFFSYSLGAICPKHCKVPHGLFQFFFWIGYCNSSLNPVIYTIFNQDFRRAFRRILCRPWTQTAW

[1] = biological target: T2, 5HT1A serotonergic receptor (Homo sapiens, UniProt P08908); experiment: PDSP radioligand binding, 5HT1A; conditions: read-out: % inhibition at 10 µM; single concentration 10 µM
T2 sequence (P08908 1-422): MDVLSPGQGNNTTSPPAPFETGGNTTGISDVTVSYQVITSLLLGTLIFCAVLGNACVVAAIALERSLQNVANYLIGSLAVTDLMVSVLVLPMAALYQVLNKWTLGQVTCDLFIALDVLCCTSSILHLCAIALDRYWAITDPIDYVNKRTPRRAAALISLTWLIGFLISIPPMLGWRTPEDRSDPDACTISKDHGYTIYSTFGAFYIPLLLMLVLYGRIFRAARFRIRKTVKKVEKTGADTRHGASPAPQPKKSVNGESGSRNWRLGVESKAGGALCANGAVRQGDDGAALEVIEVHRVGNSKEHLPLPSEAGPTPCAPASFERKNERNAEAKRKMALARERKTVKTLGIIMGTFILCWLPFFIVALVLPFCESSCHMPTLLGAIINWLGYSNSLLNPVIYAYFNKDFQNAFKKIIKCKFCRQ

hERG potassium channel = hERG potassium channel (Homo sapiens, UniProt Q12809); experiment: PDSP hERG functional assay; format: cell-based; conditions: not binding
Chain of hERG potassium channel (Q12809 whole entry): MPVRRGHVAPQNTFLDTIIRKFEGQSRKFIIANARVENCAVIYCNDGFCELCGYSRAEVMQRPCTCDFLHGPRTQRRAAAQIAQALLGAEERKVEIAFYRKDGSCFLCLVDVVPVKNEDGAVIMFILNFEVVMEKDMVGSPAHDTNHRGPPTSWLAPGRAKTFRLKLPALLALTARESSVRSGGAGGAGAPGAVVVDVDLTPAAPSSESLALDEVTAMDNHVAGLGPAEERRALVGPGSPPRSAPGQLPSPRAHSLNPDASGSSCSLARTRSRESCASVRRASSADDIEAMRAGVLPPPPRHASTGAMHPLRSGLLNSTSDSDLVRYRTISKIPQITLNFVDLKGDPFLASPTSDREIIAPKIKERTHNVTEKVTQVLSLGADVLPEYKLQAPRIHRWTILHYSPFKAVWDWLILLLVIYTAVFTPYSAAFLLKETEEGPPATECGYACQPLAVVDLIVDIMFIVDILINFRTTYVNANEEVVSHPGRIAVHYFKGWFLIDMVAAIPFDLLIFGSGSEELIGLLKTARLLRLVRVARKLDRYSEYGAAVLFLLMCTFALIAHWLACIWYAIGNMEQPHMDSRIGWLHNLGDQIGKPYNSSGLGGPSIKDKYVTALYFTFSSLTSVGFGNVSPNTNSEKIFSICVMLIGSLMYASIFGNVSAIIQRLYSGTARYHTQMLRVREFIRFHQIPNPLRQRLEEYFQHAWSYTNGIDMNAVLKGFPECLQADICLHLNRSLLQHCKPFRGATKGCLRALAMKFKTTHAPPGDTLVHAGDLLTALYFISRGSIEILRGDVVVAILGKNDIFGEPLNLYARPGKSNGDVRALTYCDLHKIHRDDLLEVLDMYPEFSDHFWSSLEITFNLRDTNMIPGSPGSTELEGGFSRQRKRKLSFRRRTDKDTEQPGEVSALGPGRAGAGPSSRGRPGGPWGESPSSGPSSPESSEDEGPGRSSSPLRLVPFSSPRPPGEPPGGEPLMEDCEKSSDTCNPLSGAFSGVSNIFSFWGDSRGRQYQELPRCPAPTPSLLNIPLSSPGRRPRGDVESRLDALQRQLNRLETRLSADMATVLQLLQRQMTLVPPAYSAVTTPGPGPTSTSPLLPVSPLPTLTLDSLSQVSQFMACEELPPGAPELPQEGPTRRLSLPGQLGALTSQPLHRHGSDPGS

σ1 receptor = σ1 receptor (Cavia porcellus, UniProt Q60492); experiment: PDSP radioligand binding, σ1; conditions: read-out: % inhibition at 10 µM; single concentration 10 µM
Chain of σ1 receptor (Q60492 whole entry): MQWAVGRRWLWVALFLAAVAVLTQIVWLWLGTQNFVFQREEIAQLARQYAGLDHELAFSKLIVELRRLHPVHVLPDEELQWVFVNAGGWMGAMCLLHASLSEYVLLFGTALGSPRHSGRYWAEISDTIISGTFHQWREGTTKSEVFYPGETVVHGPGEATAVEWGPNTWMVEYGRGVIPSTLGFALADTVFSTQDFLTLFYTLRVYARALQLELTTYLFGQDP

σ2 receptor = biological target: T3, σ2 receptor (Rattus norvegicus, UniProt Q5U3Y7); experiment: PDSP radioligand binding, σ2; conditions: for inhibition at 10 µM: read-out: % inhibition at 10 µM, single concentration 10 µM; for Ki: full curves, n = 2
T3 sequence (Q5U3Y7 1-176): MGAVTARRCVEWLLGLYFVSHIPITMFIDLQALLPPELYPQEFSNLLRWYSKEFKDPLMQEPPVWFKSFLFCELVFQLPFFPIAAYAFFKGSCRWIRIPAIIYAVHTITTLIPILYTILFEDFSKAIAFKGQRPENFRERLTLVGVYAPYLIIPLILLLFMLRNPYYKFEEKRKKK

α1D adrenergic receptor = biological target: T4, α1D adrenergic receptor (Homo sapiens, UniProt P25100); experiment: PDSP radioligand binding, α1D; conditions: read-out: % inhibition at 10 µM; single concentration 10 µM
T4 sequence (P25100 1-572): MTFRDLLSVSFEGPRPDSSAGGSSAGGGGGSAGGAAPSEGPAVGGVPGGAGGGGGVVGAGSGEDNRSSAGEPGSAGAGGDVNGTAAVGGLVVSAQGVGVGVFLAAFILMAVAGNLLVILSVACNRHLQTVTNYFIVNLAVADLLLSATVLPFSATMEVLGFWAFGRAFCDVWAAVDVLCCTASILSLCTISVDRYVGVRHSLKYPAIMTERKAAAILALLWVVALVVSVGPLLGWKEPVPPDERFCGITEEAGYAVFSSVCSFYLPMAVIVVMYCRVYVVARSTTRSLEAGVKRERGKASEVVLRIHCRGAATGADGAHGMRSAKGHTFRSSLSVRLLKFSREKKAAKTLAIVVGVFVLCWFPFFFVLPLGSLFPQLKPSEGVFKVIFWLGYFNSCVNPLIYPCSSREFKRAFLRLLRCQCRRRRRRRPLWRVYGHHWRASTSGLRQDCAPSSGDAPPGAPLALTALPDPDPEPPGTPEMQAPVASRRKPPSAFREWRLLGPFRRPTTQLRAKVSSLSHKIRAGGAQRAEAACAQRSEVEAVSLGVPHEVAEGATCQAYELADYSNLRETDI

β2 adrenergic receptor = β2 adrenergic receptor (Homo sapiens, UniProt P07550); experiment: PDSP radioligand binding, β2; conditions: read-out: % inhibition at 10 µM; single concentration 10 µM
Chain of β2 adrenergic receptor (P07550 whole entry): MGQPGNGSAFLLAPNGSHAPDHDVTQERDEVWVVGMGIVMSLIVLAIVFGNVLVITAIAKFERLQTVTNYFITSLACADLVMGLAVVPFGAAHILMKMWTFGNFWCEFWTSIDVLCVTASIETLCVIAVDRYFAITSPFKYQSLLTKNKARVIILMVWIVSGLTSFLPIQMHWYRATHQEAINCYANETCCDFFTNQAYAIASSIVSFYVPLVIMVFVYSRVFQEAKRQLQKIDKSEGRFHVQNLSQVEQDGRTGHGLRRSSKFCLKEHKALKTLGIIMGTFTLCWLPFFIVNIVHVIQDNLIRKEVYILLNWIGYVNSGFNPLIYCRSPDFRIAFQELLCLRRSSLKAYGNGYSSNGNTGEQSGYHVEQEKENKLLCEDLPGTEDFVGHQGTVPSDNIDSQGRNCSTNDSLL

[2] = biological target: T5, M2 muscarinic acetylcholine receptor (Homo sapiens, UniProt P08172); experiment: PDSP radioligand binding, M2; conditions: read-out: % inhibition at 10 µM; single concentration 10 µM
T5 sequence (P08172 1-466): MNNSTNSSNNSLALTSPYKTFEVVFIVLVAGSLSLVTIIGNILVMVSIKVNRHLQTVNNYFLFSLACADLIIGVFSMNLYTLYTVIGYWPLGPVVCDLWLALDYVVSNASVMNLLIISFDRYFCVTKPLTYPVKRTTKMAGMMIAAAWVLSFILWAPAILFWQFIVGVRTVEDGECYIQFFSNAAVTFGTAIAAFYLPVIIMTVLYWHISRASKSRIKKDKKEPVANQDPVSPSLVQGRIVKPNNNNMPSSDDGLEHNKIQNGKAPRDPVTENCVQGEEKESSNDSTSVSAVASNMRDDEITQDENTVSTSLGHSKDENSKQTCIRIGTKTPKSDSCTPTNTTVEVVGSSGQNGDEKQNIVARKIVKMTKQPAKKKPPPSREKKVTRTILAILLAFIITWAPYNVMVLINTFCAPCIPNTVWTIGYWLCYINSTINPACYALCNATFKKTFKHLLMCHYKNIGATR

[3] = biological target: H1 histaminergic receptor (Homo sapiens, UniProt P35367); experiment: PDSP radioligand binding, H1; conditions: read-out: % inhibition at 10 µM; single concentration 10 µM
Chain of H1 histaminergic receptor (P35367 whole entry): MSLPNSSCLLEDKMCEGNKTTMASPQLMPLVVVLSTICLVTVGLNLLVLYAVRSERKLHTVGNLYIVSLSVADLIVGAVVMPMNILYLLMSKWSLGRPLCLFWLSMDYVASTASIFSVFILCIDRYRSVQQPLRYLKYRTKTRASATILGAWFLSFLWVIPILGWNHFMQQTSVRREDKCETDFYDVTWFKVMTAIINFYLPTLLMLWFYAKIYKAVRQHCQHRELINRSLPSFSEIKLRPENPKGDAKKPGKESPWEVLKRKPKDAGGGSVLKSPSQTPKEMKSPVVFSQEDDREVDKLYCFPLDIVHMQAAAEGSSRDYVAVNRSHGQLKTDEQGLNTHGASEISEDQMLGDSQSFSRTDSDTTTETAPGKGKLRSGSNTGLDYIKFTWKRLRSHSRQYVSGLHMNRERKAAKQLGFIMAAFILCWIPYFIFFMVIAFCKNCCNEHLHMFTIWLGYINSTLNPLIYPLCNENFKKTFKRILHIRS

D3 dopaminergic receptor = D3 dopaminergic receptor (Homo sapiens, UniProt P35462); experiment: PDSP radioligand binding, D3; conditions: read-out: % inhibition at 10 µM; single concentration 10 µM
Chain of D3 dopaminergic receptor (P35462 whole entry): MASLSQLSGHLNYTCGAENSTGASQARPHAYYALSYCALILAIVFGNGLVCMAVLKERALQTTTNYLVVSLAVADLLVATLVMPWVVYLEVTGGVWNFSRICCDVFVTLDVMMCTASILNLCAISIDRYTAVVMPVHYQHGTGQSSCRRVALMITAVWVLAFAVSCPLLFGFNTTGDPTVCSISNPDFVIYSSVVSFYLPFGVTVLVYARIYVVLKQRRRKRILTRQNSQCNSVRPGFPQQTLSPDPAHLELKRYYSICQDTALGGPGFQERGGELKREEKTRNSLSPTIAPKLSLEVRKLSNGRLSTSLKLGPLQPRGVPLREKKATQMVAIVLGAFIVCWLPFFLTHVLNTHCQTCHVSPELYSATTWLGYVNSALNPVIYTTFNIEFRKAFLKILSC

D5 dopaminergic receptor = D5 dopaminergic receptor (Homo sapiens, UniProt P21918); experiment: PDSP radioligand binding, D5; conditions: read-out: % inhibition at 10 µM; single concentration 10 µM
Chain of D5 dopaminergic receptor (P21918 whole entry): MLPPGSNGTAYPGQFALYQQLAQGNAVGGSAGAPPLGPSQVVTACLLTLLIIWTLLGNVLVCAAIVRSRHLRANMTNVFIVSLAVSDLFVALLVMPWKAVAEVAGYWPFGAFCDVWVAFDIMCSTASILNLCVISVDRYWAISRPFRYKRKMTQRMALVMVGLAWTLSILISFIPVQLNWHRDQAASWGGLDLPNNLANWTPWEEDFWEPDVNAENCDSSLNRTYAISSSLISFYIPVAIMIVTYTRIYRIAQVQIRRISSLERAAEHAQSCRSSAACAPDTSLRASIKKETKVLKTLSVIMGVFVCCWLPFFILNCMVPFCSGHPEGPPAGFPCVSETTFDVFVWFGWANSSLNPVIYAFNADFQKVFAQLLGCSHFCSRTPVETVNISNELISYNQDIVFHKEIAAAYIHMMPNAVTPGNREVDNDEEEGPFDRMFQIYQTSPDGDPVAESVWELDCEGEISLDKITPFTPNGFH

[4] = biological target: 5HT2A serotonergic receptor (Homo sapiens, UniProt P28223); experiment: PDSP radioligand binding, 5HT2A; conditions: read-out: % inhibition at 10 µM
Chain of 5HT2A serotonergic receptor (P28223 whole entry): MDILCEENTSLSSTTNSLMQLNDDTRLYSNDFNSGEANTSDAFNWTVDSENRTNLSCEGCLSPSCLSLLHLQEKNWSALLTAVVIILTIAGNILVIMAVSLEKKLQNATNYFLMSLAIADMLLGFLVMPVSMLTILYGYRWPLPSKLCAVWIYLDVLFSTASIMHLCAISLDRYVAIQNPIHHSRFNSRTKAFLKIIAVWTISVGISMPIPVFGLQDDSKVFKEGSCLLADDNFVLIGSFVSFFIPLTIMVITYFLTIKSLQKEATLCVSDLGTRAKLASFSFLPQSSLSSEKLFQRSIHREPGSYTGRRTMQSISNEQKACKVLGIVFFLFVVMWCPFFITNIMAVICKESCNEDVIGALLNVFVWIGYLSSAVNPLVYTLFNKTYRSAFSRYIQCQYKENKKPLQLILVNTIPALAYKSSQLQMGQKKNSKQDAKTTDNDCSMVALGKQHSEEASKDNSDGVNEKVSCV

[5] = biological target: 5HT6 serotonergic receptor (Homo sapiens, UniProt P50406); experiment: PDSP radioligand binding, 5HT6; conditions: read-out: % inhibition at 10 µM; single concentration 10 µM
Chain of 5HT6 serotonergic receptor (P50406 whole entry): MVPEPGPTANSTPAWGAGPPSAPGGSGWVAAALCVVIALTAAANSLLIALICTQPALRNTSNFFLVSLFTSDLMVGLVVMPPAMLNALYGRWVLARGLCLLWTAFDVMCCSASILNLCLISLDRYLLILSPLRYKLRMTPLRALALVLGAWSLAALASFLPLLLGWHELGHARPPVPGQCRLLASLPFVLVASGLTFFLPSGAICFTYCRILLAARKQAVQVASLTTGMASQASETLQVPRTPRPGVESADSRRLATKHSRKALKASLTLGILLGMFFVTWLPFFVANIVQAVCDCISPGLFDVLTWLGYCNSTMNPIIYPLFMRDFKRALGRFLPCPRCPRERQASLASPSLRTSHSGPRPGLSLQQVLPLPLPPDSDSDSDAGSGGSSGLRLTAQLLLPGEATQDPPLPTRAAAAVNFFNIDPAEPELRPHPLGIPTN

κ opioid receptor = κ opioid receptor (Homo sapiens, UniProt P41145); experiment: PDSP radioligand binding, κ opioid; conditions: read-out: % inhibition at 10 µM; single concentration 10 µM
Chain of κ opioid receptor (P41145 whole entry): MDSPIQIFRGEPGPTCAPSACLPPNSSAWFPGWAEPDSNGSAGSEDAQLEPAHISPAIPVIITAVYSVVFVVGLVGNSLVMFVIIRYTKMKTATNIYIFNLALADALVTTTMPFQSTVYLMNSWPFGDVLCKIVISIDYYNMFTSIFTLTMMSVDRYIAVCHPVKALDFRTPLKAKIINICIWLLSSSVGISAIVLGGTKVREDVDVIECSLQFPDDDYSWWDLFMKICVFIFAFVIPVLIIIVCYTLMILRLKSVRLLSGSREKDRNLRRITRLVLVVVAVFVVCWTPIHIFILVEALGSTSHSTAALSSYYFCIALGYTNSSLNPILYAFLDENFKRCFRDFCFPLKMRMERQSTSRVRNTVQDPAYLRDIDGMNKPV

µ opioid receptor = µ opioid receptor (Homo sapiens, UniProt P35372); experiment: PDSP radioligand binding, µ opioid; conditions: read-out: % inhibition at 10 µM; single concentration 10 µM
Chain of µ opioid receptor (P35372 whole entry): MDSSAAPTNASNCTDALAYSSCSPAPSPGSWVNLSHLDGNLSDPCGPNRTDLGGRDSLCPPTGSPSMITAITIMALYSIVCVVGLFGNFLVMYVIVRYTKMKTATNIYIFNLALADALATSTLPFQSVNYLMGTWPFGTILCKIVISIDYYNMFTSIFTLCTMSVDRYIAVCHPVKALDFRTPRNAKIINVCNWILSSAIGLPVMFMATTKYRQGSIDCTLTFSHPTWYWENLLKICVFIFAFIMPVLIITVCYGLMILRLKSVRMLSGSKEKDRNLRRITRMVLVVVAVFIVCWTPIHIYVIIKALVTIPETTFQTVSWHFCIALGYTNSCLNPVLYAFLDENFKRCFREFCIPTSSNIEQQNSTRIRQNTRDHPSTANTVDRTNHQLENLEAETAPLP

Compound CNC(=O)[C@@]12C[C@@H]1[C@@H](n1cnc3c(NC)nc(C#Cc4ccc(F)c(F)c4)nc31)[C@H](O)[C@@H]2O [Compound 5] has an inhibition at 10 µM (α2B adrenergic receptor) of 0%, an inhibition at 10 µM [1] of 10% and a Ki (hERG potassium channel) of 7.93 µM. For the same compound, the inhibition at 10 µM (σ1 receptor) was 10%, the inhibition at 10 µM (σ2 receptor) was 33% and the inhibition at 10 µM (α1D adrenergic receptor) was 0%. It also gave an inhibition at 10 µM (β2 adrenergic receptor) of 2%, an inhibition at 10 µM [2] of 0% and an inhibition at 10 µM [3] of 0%. The inhibition at 10 µM (D3 dopaminergic receptor) was 4%, the inhibition at 10 µM (D5 dopaminergic receptor) was 6% and the inhibition at 10 µM [4] was 11%. It also gave an inhibition at 10 µM [5] of 15%, an inhibition at 10 µM (κ opioid receptor) of 21% and an inhibition at 10 µM (µ opioid receptor) of 5%.

O[C@@H]1[C@H](O)[C@@H]2C[C@@H]2[C@H]1n1cnc2c(NCc3cccc(Cl)c3)nc(C#Cc3ccc(F)c(F)c3)nc21 [Compound 6] showed a Ki (α2B adrenergic receptor) of 5.97 ± 1.53 µM, an inhibition at 10 µM (α2B adrenergic receptor) of 0% and an inhibition at 10 µM [1] of 9%. It also gave an inhibition at 10 µM (σ1 receptor) of 16%, a Ki (σ2 receptor) of 2.94 ± 1.5 µM and an inhibition at 10 µM (σ2 receptor) of 69%. The inhibition at 10 µM (α1D adrenergic receptor) was 5%, the inhibition at 10 µM (β2 adrenergic receptor) was 0% and the inhibition at 10 µM [2] was 7%. The inhibition at 10 µM [3] was 3%, the inhibition at 10 µM (D3 dopaminergic receptor) was 0% and the inhibition at 10 µM (D5 dopaminergic receptor) was 3%. For the same compound, the inhibition at 10 µM ([4]; single concentration 10 µM) was 6%, the inhibition at 10 µM [5] was 0% and the inhibition at 10 µM (κ opioid receptor) was 29%. The inhibition at 10 µM (µ opioid receptor) was 0%.

For O[C@@H]1[C@H](O)[C@@H]2C[C@@H]2[C@H]1n1cnc2c(NCc3cccc(Cl)c3)ncnc21 [Compound 7], the Ki (α2B adrenergic receptor) was 6.34 ± 1.47 µM, the inhibition at 10 µM (α2B adrenergic receptor) was 42% and the inhibition at 10 µM [1] was 28%. For the same compound, the inhibition at 10 µM (σ1 receptor) was 29%, the Ki (σ2 receptor) was 2.68 ± 0.47 µM and the inhibition at 10 µM (σ2 receptor) was 66%. The inhibition at 10 µM (α1D adrenergic receptor) was 30%, the inhibition at 10 µM (β2 adrenergic receptor) was 53% and the inhibition at 10 µM [2] was 15%. The inhibition at 10 µM [3] was 64%, the inhibition at 10 µM (D3 dopaminergic receptor) was 4% and the inhibition at 10 µM (D5 dopaminergic receptor) was 7%. The inhibition at 10 µM ([4]; single concentration 10 µM) was 7%, the inhibition at 10 µM [5] was 39% and the inhibition at 10 µM (κ opioid receptor) was 4%. It also gave an inhibition at 10 µM (µ opioid receptor) of 1%.

Fc1ccc(C#Cc2nc(NCc3cccc(Cl)c3)c3nc[nH]c3n2)cc1F [Compound 8] showed a Ki (α2B adrenergic receptor) of 1.09 ± 0.14 µM, an inhibition at 10 µM (α2B adrenergic receptor) of 63% and an inhibition at 10 µM [1] of 11%. The inhibition at 10 µM (σ1 receptor) was 0%, the inhibition at 10 µM (σ2 receptor) was 14% and the inhibition at 10 µM (α1D adrenergic receptor) was 0%. The inhibition at 10 µM (β2 adrenergic receptor) was 0%, the inhibition at 10 µM [2] was 6% and the inhibition at 10 µM [3] was 1%. The inhibition at 10 µM (D3 dopaminergic receptor) was 23%, the inhibition at 10 µM (D5 dopaminergic receptor) was 9% and the inhibition at 10 µM ([4]; single concentration 10 µM) was 9%. It also gave an inhibition at 10 µM [5] of 0%, an inhibition at 10 µM (κ opioid receptor) of 15% and an inhibition at 10 µM (µ opioid receptor) of 15%.

In the case of Clc1cccc(CNc2nc(Cl)nc3[nH]cnc23)c1 [Compound 9], the Ki (α2B adrenergic receptor) is reported as 0.061 ± 0.02 µM, the inhibition at 10 µM (α2B adrenergic receptor) is reported as 95% and the inhibition at 10 µM [1] is reported as 12%. The inhibition at 10 µM (σ1 receptor) was 0%, the inhibition at 10 µM (σ2 receptor) was 0% and the inhibition at 10 µM (α1D adrenergic receptor) was 0%. For the same compound, the inhibition at 10 µM (β2 adrenergic receptor) was 0%, the inhibition at 10 µM [2] was 9% and the inhibition at 10 µM [3] was 4%. The inhibition at 10 µM (D3 dopaminergic receptor) was 6%, the inhibition at 10 µM (D5 dopaminergic receptor) was 0% and the inhibition at 10 µM [4] was 0%. For the same compound, the inhibition at 10 µM [5] was 31%, the inhibition at 10 µM (κ opioid receptor) was 0% and the inhibition at 10 µM (µ opioid receptor) was 0%.
